{
  "source": "paper PMC4492759",
  "about": "“Pharmacological profiling of the hemodynamic effects of cannabinoid ligands: a combined in vitro and in vivo approach” (Pharmacology Research & Perspectives, 2015)",
  "key": {"rat CB1": {"biological_target": "T1, rat CB1 (Rattus norvegicus, UniProt P20272)", "T1 construct": "expressed in transfected cells; host or cells: HEK293s, transient transfection; membranes prepared", "T1 sequence (P20272 whole entry)": "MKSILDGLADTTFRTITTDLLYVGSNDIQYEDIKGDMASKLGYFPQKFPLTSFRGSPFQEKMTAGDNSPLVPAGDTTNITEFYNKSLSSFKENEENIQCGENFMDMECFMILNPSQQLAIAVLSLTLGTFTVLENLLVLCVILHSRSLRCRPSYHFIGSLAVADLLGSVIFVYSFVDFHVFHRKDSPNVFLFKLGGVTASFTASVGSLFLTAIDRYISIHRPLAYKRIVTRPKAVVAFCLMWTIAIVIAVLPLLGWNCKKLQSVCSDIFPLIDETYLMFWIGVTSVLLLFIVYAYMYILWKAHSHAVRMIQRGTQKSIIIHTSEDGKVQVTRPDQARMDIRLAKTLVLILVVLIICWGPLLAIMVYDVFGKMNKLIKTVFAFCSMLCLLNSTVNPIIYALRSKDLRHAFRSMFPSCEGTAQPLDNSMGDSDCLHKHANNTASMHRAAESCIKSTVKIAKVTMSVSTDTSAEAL", "assay": "[35S]-GTPγS binding, membranes of HEK293s cells transfected with rat CB1", "type": "biochemical", "conditions": "for EC50: mean ± SEM", "procedure": "(§1) Antagonist assays were performed similarly, with the addition of an EC80 concentration of CP55940 as a nonselective CB1/CB2 agonist in conjunction with the ligand to be tested. Nonspecific binding was determined in the presence of 20 μmol/L unlabeled GTPγS. The reaction was terminated by addition of ice-cold wash buffer (50 mmol/L Tris-HCl, 5 mmol/L MgCl2, 50 mmol/L NaCl; pH 7.4) followed by rapid filtration under vacuum through 96-well B-glass fiber filter plates (PerkinElmer, Waltham, Massachusetts, USA) using a Biomek FX (Beckman Coulter, Bromma, Sweden). The filter plates were dried (30 min at 50°C) before scintillation liquid (PerkinElmer) was added onto the filters and the bound radioactivity was determined using a scintillation counter (Wallac). Data were fitted with a four-parameter logistic fit using the equation y = A + (B − A)/1 + ((C/x)^D), where A is no activation, B is full activation, C is the EC50, and D is the Hill slope. All data were based on at least three independent experiments."}, "mouse CB1": {"biological_target": "T2, mouse CB1 (Mus musculus, UniProt P47746)", "T2 construct": "expressed in transfected cells; host or cells: HEK293s, transient transfection; membranes prepared", "T2 sequence (P47746 whole entry)": "as the sequence (P20272 whole entry) above, with E95D counted along it", "assay": "[35S]-GTPγS binding, membranes of HEK293s cells transfected with mouse CB1", "type": "biochemical", "conditions": "mean ± SEM", "procedure": "as §1"}, "mouse GPR55": {"biological_target": "T3, mouse GPR55 (Mus musculus, UniProt Q3UJF0)", "T3 construct": "expressed in transfected cells; host or cells: HEK293s, transient transfection; membranes prepared", "T3 sequence (Q3UJF0 whole entry)": "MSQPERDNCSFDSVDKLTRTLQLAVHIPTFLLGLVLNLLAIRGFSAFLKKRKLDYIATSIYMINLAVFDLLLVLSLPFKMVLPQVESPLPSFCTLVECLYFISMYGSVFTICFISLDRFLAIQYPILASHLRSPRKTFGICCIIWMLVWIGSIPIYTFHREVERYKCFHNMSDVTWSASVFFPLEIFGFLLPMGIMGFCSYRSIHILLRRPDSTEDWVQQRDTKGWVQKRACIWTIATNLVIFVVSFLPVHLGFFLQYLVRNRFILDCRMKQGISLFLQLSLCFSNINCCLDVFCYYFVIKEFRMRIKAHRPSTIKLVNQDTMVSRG", "assay": "[35S]-GTPγS binding, membranes of HEK293s cells transfected with mouse GPR55", "type": "biochemical", "conditions": "mean ± SEM", "procedure": "as §1, with “HEK293s cells were transiently transfected with cDNA encoding rat or mouse CB1 or GPR55 and membranes were prepared as previously described (Ryberg et al. [2007]). In short, agonist activities in [^35S]-GTPγS binding assays were determined by the addition of ligand at 30°C for 45 min in membrane buffer [50 mmol/L NaCl, 5 mmol/L MgCl2, 0.5 mmol/L EDTA, 25 mmol/L HEPES (all Sigma, Gillingham, Dorset, UK); pH 7.4] containing 0.05 μg μL^−1 of membrane protein with 0.01% BSA, 25 μmol/L guanosine 5′-diphosphate (GDP), 100 μmol/L dithiothreitol (DTT), and 0.53 nmol/L [^35S]GTPγS (PerkinElmer) in a final volume of 200 μL. Antagonist” for “Antagonist”"}, "rat GPR55": {"biological_target": "T4, rat GPR55 (Rattus norvegicus, UniProt F1MAK4)", "T4 construct": "expressed in transfected cells; host or cells: HEK293s, transient transfection; membranes prepared", "T4 sequence (F1MAK4 1-319)": "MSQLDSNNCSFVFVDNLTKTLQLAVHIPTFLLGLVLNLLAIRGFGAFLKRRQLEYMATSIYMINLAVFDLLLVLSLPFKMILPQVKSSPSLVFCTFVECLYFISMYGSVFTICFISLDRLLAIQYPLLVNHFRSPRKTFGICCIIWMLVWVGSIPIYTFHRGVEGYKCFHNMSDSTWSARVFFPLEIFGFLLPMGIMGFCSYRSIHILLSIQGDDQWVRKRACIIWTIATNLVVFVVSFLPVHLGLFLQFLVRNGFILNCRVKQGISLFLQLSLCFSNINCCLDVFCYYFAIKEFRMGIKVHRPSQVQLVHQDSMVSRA", "assay": "[35S]-GTPγS binding, membranes of HEK293s cells transfected with rat GPR55", "type": "biochemical", "procedure": "as §1, with “HEK293s cells were transiently transfected with cDNA encoding rat or mouse CB1 or GPR55 and membranes were prepared as previously described (Ryberg et al. [2007]). In short, agonist activities in [^35S]-GTPγS binding assays were determined by the addition of ligand at 30°C for 45 min in membrane buffer [50 mmol/L NaCl, 5 mmol/L MgCl2, 0.5 mmol/L EDTA, 25 mmol/L HEPES (all Sigma, Gillingham, Dorset, UK); pH 7.4] containing 0.05 μg μL^−1 of membrane protein with 0.01% BSA, 25 μmol/L guanosine 5′-diphosphate (GDP), 100 μmol/L dithiothreitol (DTT), and 0.53 nmol/L [^35S]GTPγS (PerkinElmer) in a final volume of 200 μL. Antagonist” for “Antagonist”"}, "[1]": {"tested_on": "anesthetized WT and GPR55−/− mice", "assay": "Hemodynamic responses (MABP, HR) in anesthetized WT and GPR55−/− mice", "type": "in vivo, mouse", "procedure": "(§2) All experiments performed under terminal anesthesia were carried out following approval by Robert Gordon University Animal Ethics Panel. Anesthesia was induced in male SD rats (200–300 g) by sodium pentobarbital [60 mg kg^−1 intraperitoneal (i.p.) injection]. Male/female WT and GPR55^−/− mice (25–35 g) were anesthetized with a mixture of ketamine (120 mg kg^−1) and xylazine (16 mg kg^−1) via i.p. injection. For both species the trachea was cannulated to allow artificial respiration with room air when required (54 strokes min^−1 and tidal volume 1.5 mL 100 g^−1 for rats; 120 strokes min^−1 and tidal volume 100 μL 10 g^−1 for mice) and the left carotid artery and right jugular vein were cannulated for the measurement of arterial BP (MLT844 Physiological Pressure Transducer; AD Instruments, Oxford, UK) and drug administration, respectively. Core temperature was monitored continuously and maintained at 37–38°C with the aid of a Vetcare heated pad (Harvard Apparatus Ltd., Boston, Massachusetts, USA). Anesthesia was monitored by foot pinch reflex and maintained throughout by administration of additional doses of anesthetic (rats: 3–4 mg kg^−1 of sodium pentobarbital salt i.v.; mice: 50 μL 25 g^−1of ketamine/xylazine i.p.) every 40 min, or as required. […] Heart rate (HR) was calculated from the ECG and recorded throughout the entire experimental period. After a stabilization period of approximately 15 min dose–response experiments were carried out as described below.\n(§3) As a preliminary assessment of the effects of ACEA on arterial BP, a single bolus intravenous dose (3 mg kg^−1; selected from the literature as a dose known to produce a depressor response) was given to anesthetized rats. […] The time interval between drug administrations was 10–15 min to allow BP values to return to predrug values."}, "[2]": {"tested_on": "anesthetized Sprague–Dawley (SD) rats", "assay": "Hemodynamic responses (MABP, HR) in anesthetized normotensive rats", "type": "in vivo, rat", "procedure": "as §2, §3"}, "[3]": {"tested_on": "conscious WT, CB1−/− and GPR55−/− mice", "assay": "Blood pressure and heart rate responses in conscious mice (WT, CB1−/−, GPR55−/−)", "conditions": "metoprolol (10 mg kg−1 i.v.); conscious GPR55−/− mice"}, "[4]": {"assay": "Blood concentration estimated from dose and blood volume", "conditions": "ACEA 3 mg kg−1; assuming total blood volume ∼20 mL in a 300 g rat", "text": "Therefore, in an attempt to determine whether GPR55 plays a role in the depressor response to ACEA we studied the hemodynamic responses in anesthetized WT and GPR55^−/− mice."}, "[5]": {"conditions": "antagonist mode, vs EC80 concentration of CP55940, read-out: CB1 EC50, Mouse (ligand behaved as an antagonist)"}, "[6]": {"conditions": "agonist mode, at least three experiments, read-out: GPR55 EC50, Mouse"}, "[7]": {"conditions": "agonist mode, at least three experiments, read-out: CB1 EC50, Mouse"}},
  "note": "Where two headings read alike, the source gives them in different places.",
  "data": [
    {"compound": "Cc1c(C(=O)NN2CCOCC2)nn(-c2ccc(Cl)cc2Cl)c1-c1ccc(I)cc1", "note": "[AM281, 1-(2,4-dichlorophenyl)-5-(4-iodophenyl)-4-methyl-N-4-morpholinyl-1H-pyrazole-3-carboxamide]", "values": [
      {"measurement": "EC50", "setting": "rat CB1; antagonist mode, vs EC80 concentration of CP55940, read-out: CB1 EC50, Rat (ligand behaved as an antagonist)", "value": "13 ± 4", "unit": "nM"},
      {"measurement": "EC50", "setting": "mouse CB1; [5]", "value": "8 ± 1", "unit": "nM"},
      {"measurement": "EC50", "setting": "mouse GPR55; [6]", "value": "> 30000", "unit": "nM"},
      {"measurement": "EC50", "setting": "rat GPR55", "value": "> 30000", "unit": "nM"}
    ]},
    {"compound": "Cc1c(C(=O)NN2CCCCC2)nn(-c2ccc(Cl)cc2Cl)c1-c1ccc(I)cc1", "note": "[AM251, 1-(2,4-dichlorophenyl)-5-(4-iodophenyl)-4-methyl-N-(piperidin-1-yl)-1H-pyrazole-3-carboxamide]", "values": [
      {"measurement": "higher potency for CB1 (antagonist) than GPR55 (agonist)", "setting": "rat CB1; GTPγS binding, rat and mouse", "value": "three to five"},
      {"measurement": "EC50", "setting": "mouse CB1; [5]", "value": "13 ± 2", "unit": "nM"},
      {"measurement": "depressor response in the presence of CBD", "setting": "[1]; AM251 (1 and 3 mg kg−1) with CBD (50 μg kg−1), mice", "value": "augmented"},
      {"measurement": "effect on magnitude and duration of the depressor response to ACEA", "setting": "[2]; AM251 1 and 3 mg kg−1, ACEA 3 mg kg−1, dose-dependent, P < 0.01", "value": "attenuated"},
      {"measurement": "EC50", "setting": "mouse GPR55; [6]", "value": "68 ± 3", "unit": "nM"},
      {"measurement": "EC50", "setting": "rat GPR55", "value": "74 ± 3", "unit": "nM"}
    ]},
    {"compound": "C=C(C)[C@@H]1CCC(C)=C[C@H]1c1c(O)cc(CCCCC)cc1O", "note": "[CBD, cannabidiol]", "values": [
      {"measurement": "EC50", "setting": "mouse CB1; [7]", "value": "> 30000", "unit": "nM"},
      {"measurement": "blood pressure response", "setting": "[1]; CBD alone 50 μg kg−1, WT and GPR55−/− mice", "value": "depressor responses of a similar magnitude"},
      {"measurement": "effect on HR", "setting": "[2]; CBD 50 μg kg−1, any experiments (rats and mice), data not shown", "value": "unaffected"},
      {"measurement": "reduction of AAC value of the depressor response to ACEA", "setting": "[2]; CBD alone 50 μg kg−1, ACEA 3 mg kg−1, P < 0.05", "value": "approximately 50%"},
      {"measurement": "blood pressure response", "setting": "[2]; CBD alone 50 μg kg−1 single bolus, P < 0.05", "value": "small but measurable and statistically significant depressor response"},
      {"measurement": "EC50", "setting": "mouse GPR55; antagonist mode, vs EC80 concentration of CP55940, read-out: GPR55 EC50, Mouse (ligand behaved as an antagonist)", "value": "780 ± 8", "unit": "nM"},
      {"measurement": "EC50", "setting": "rat GPR55", "value": "624 ± 13", "unit": "nM"}
    ]},
    {"compound": "COCCc1ccc(OCC(O)CNC(C)C)cc1", "note": "(stereo not drawn) [metoprolol]", "values": [
      {"measurement": "effect on HR", "setting": "[3]", "value": "profound and long-lasting bradycardia"}
    ]},
    {"compound": "CCCCC/C=C\\C/C=C\\C/C=C\\C/C=C\\CCCC(=O)NCCO", "note": "[AEA, anandamide]", "values": [
      {"measurement": "EC50", "setting": "mouse GPR55; [6]", "value": "38 ± 3", "unit": "nM"},
      {"measurement": "EC50", "setting": "rat GPR55", "value": "24 ± 3", "unit": "nM"}
    ]},
    {"compound": "CCCCC/C=C\\C/C=C\\C/C=C\\C/C=C\\CCCC(=O)NCCCl", "note": "[ACEA, arachidonyl-2′-chloroethylamide]", "values": [
      {"measurement": "higher affinity for CB1 as compared to GPR55", "setting": "rat CB1; GTPγS binding, both mouse and rat", "value": "approximately 10 fold"},
      {"measurement": "EC50", "setting": "rat CB1; agonist mode, at least three experiments, read-out: CB1 EC50, Rat", "value": "7 ± 1", "unit": "nM"},
      {"measurement": "EC50", "setting": "mouse CB1; [7]", "value": "3 ± 0.5", "unit": "nM"},
      {"measurement": "effect on HR", "setting": "[1]; ACEA 3 mg kg−1, WT and GPR55−/− mice", "value": "nor was there any measurable effect"},
      {"measurement": "depressor response distinguishable from vehicle", "setting": "[1]; ACEA 3 mg kg−1, either WT or GPR55−/− mice", "value": "did not produce a depressor response"},
      {"measurement": "expected total (not necessarily free) blood concentration", "setting": "[4]", "value": "100 to 120", "unit": "nmol/L"},
      {"measurement": "effect on HR", "setting": "[2]; ACEA single bolus 3 mg kg−1 i.v.", "value": "no effect"},
      {"measurement": "blood pressure (MABP) response", "setting": "[2]; ACEA single bolus 3 mg kg−1 i.v., P < 0.001", "value": "reproducible and pronounced depressor response"},
      {"measurement": "EC50", "setting": "mouse GPR55; [6]", "value": "62 ± 3", "unit": "nM"},
      {"measurement": "EC50", "setting": "rat GPR55; agonist mode, mean ± SEM, at least three experiments, read-out: GPR55 EC50, Rat", "value": "78 ± 4", "unit": "nM"}
    ]}
  ]
}
